{"source": "patent US6680295B1", "about": "“Method and pharmaceutical composition for prevention and treatment of brain damage” (priority 1994, dated 2004)", "key": {"[1]": {"molecular_target": "T1, PACAP binding sites in rat brain membrane preparations (Rattus norvegicus, UniProt P32215)", "T1 construct": "from tissue; host or cells: rat brain membrane preparations (E18 whole brain; other ages and regions also dissected)", "T1 sequence (P32215 20-523)": "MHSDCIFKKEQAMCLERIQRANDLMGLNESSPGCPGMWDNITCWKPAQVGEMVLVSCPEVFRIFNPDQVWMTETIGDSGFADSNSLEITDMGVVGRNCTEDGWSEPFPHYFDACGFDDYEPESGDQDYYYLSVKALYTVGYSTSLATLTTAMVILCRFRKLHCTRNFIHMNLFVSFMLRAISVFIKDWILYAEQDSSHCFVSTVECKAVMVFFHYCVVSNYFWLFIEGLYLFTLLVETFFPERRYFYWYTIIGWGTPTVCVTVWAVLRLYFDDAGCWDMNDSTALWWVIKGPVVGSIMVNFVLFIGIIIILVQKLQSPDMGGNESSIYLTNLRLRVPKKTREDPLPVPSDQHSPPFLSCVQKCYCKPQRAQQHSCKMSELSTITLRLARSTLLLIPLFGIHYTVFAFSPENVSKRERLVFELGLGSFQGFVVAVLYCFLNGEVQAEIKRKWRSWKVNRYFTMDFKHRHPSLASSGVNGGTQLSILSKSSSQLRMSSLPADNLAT", "assay": "Radioreceptor assay: displacement of 125I-PACAP27 binding to E18 rat brain membranes", "conditions": "for displacement of 125I-PACAP27 binding: unlabeled peptide", "from_the_text": "Male CD rats (Charles River Breeding Labs., Wilmington, Mass.) were used throughout this example. The following regions of the brain were dissected at the indicated ages: embryonic day E14 (whole brain); E18 (whole brain, neocortex, hippocampus, and diencephalon); postnatal days P0, P7 and P14 (whole brain, neocortex, hippocampus, diencephalon, and cerebellum); and 1-, 2- and 3-months old (MO) (whole brain, neocortex, hippocampus, diencephalon, and cerebellum). After dissection, each region was immediately frozen on dry-ice and stored at −70 C. for up to 2 months until the receptor and peptide levels were determined. […] Arimura, et al., Endocrinology 129: 2787-2789 (1991). […] Gottschall, et al., Endocrinology 127: 272-277 (1990), and Gottschall, et al., FASEB J 5: 194-199 (1991).\nGottschall, et al., Endocrinology 127: 272-277 (1990) and Gottschall, et al., FASEB J 5: 194-199."}, "[2]": {"tested_on": "dorsomedial population of dorsal root ganglia (DRG18)", "assay": "Natural neuronal cell death in dorsal root ganglion DRG18 of chick embryo", "conditions": "25 nM in the egg daily E3 1/2 to E8 1/2, counted on E9, p<0.01", "procedure": "The control group received vehicle and the experimental group received PACAP38 (25 nM in the egg) daily from E3 ½ to E8 ½. Number is the mean of the numbers of degenerating cells in 6 ganglia in each group. Bar indicates SEM.\nEffect of PACAP on natural neuronal cell death was also examined in chick embryos using similar experimental procedures described by Hamburger and Montalcini. […] Fertilized White Leghorn eggs (Troslow Farms) were incubated at 39 C. at 99% humidity. A small hole was opened at the top of the egg on E3 ½ (Stage 23) by punching with micro-dissecting tweezers. One μl/g of egg weight of sterile Tyrode solution or solution containing 5 μM or 25 μM PACAP38 was administered daily through the hole onto the highly vascularized chorioallantoic membrane from day E3 ½ through E8 ½ in the experiment for dorsal root ganglion (DRG), and from E6 through E9 for lumbar motor column (LMC). […]\nThe magnification used (×400), one can observe DRG18 divided into two populations of cells: large differentiating ventrolateral (VL) and small, late differentiating dorsomedial (DM) cells. […] Macrophages containing debris of several cells were encountered rarely and counted as two degenerating cells. Every second section of the ganglia was counted, and the sum multiplied by two to obtain a data point. A total of 6 ganglia were counted in each of the control and experimental groups, respectively."}, "[3]": {"tested_on": "hippocampal CA1 neurons", "assay": "Forebrain ischemia, hippocampal CA1 neuronal cell death, iv infusion started 24 hrs after ischemia", "type": "in vivo, rat", "conditions": "bolus and infusion started 24 hrs after ischemia", "description": "FIG. 18 is a graph showing the cytoprotective effect of iv infusion of PACAP38 which started 24 hrs. after ischemia in rats.\n(§1) The clips were removed 15 minutes later. […] The incision wound was closed.\nNeuronal cell death in CA1 induced by forebrain ischemia progresses slowly. One day after ischemia/reperfusion many viable neurons were still seen in CA1. However, nearly all neurons died one week after ischemia. Therefore, if the administration of PACAP38 is started 24 hrs after ischemia, the treatment could possibly still prevent the slow death of the neurons. To test this hypothesis, a bolus iv injection and subsequent iv infusion of PACAP38 was started 24 hrs after ischemia."}, "[4]": {"tested_on": "hippocampal CA1 neurons", "assay": "Forebrain ischemia/reperfusion (four vessel occlusion), hippocampal CA1 neuronal cell death, icv administration", "procedure": "Each column indicates viable cell number 7 days after 15 min ischemia of the forebrain of rats which were intracerebroventricularly administered the vehicle alone or the vehicle containing varying amounts of PACAP38. The numbers of cells are expressed by percentages of live cells as compared with the cells in the same area of the intact rat hippocampus. […] FIGS. 13A-F are microphotographs of coronal sections of the right hippocampal CA1 from intact rats and rats subjected to forebrain ischemia for 15 min. The sections were stained with cresyl violet (A, B, C) and immunostained for MAPII (D, E, F). A, D: Intact rats. B, E: 7 days after ischemia in vehicle-infused (icv) rats. […] PACAP38 administration started immediately after ischemia.\nAdult male rats of CD strain weighing 270-300 g body weight (Charles River Breeding labs, Wilmington, Miss.) were used. Under Ketamine anesthesia, the bilateral vertebrate arteries were permanently occluded at the first cervical vertebra by electrocoagulation. Bilateral carotid arteries were exposed and a loop of silicon rubber tubing was placed around each carotid artery, leaving the end of the tubing outside the suture. The animal was left in the laboratory with water, but without food. The following morning, both loops around the carotid arteries were pulled and artery clips were applied on the loops at the portion close to the skin so that both carotid arteries were occluded and ischemia of the brain occurred as long as the clips remained. The clips were removed 15 minutes later. During ischemia, body temperature was monitored by thermometer placed in the rectum and the body temperature was maintained at 37° C. by radiation heat from light bulb. […] Reperfusion of bilateral carotid arteries was assured by direct visual examination. The incision wound was closed.\nSoon after the reperfusion of the carotid arteries began, the animal was placed on a stereotaxic instrument, the skull was exposed, and a small hole was made by a dental drill at anterior 0.6 lateral 1.5, vertical 5.0 mm from the bregma and skull surface, and guided cannula (Alza Corp., Palo Alto, Calif.) was inserted into the hole so that the tip of the cannula is in the lateral cerebroventricle and fixed on the skull by dental cement. The incised skin was then closed by suture. Then 10 μl of artificial cerebrospinal fluid (CSF) containing 0.1% bovine serum albumin (ESA) or the vehicle containing varying amounts of PACAP38 was introduced.\nPACAP38 was icv infused into the right lateral cerebroventricle of rats having neuronal cell damage in the CA1 of the hippocampus as discussed in example 5. The effect of the icv infusion of PACAP38 on ischemia-induced neuronal cell death in the hippocampal CA1 in rats was measured."}, "[5]": {"tested_on": "motoneurons in the lateral motor column (LMC)", "assay": "Survival of motoneurons in lumbar lateral motor column of chick embryo", "procedure": "Embryos received vehicle, or 5 nM or 25 nM PACAP (concentrations in the egg after injection) daily from E6 to E9. Average LMC is represented by 320-340 sections and cell counts were made on every tenth section. Sum of live cells in all counted sections multiplied by 10 is shown in this figure. Numbers indicate mean numbers of live cells in 6 LMC in each group. Bars indicate SME.\nEffect of PACAP on natural neuronal cell death was also examined in chick embryos using similar experimental procedures described by Hamburger and Montalcini. […] Fertilized White Leghorn eggs (Troslow Farms) were incubated at 39 C. at 99% humidity. A small hole was opened at the top of the egg on E3 ½ (Stage 23) by punching with micro-dissecting tweezers. […]\nIn the lumbar motor column (LMC), intact motoneurons were easily distinguishable from surrounding cells due to their large size and deeply stained perikaryon. Only those neurons with an intact nuclear membrane and at least one visible nucleolus were counted as live cells. Every tenth section of the LMC was counted, and the sum of the sections multiplied by ten to obtain a data point. A total of 6 motor columns was counted in each of the control and experimental groups."}, "[6]": {"tested_on": "hippocampal CA1 neurons", "assay": "Forebrain ischemia, hippocampal CA1 neuronal cell death, iv infusion started immediately after ischemia", "type": "in vivo, rat", "description": "as §1\nPACAP38 was administered i.v. to rats (see example 5) over one week, starting immediately after ischemia/reperfusion. […] In this experiment, 20 μg/kg (approximately 4 nmol/kg) was given as a bolus iv injection before the infusion began."}, "[7]": {"tested_on": "dissociated hippocampal cultures", "assay": "Prevention of gp120-induced neuronal cell death in dissociated hippocampal cultures", "type": "cell-based, mice", "conditions": "1 pM gp120, five days", "description": "The cultures were prepared from 16-17 day-old mice embryos (C57B1/6) as previously described. Brenneman, et al., Nature 335: 639-642 (1988). Before treatment, the cultures were given a complete change of medium. […] Cell counts were conducted on 60 fields, 0.12 mm^2 each. Neurons were identified immunocytochemically using antiserum against neuron specific enolase. Schmechel, et al., Nature 276: 834-836 (1978). Each value is the mean of 3-5 dishes.\nBrenneman, et al. Nature 335: 639-642 (1988). […] Brenneman, et al. Nature 335: 639-642 (1988). […] Arimura, et al., Trends Endocr. Metab. 3: 288-294 (1993). Arimura et al., Ann NY Acad. Sci. 739:228-243 (1994)."}, "[8]": {"tested_on": "cultured rat astrocytes, intracellular cAMP", "assay": "cAMP response in cultured rat astrocytes (RIA)", "type": "cell-based", "conditions": "astrocyte cultures", "description": "Astrocytes cultures were prepared from brain of neonatal rats. Astrocytes were allowed to proliferate for 7-10 days before experiments.\n(§2) Yada, et al., J. Biol. Chem. 269: 1290-1293 (1994)."}, "[9]": {"tested_on": "dissociated hippocampal cultures", "conditions": "cited from earlier work"}, "[10]": {"tested_on": "cultured rat neurons, intracellular cAMP", "assay": "cAMP response in cultured rat neurons (RIA)", "type": "cell-based", "conditions": "neuron cultures", "description": "Neuron cultures were prepared from brains of 1 day-old rats. 1×10^7 cells were plated in each dish (35 mm diameter).\nas §2"}, "[11]": {"molecular_target": "T2, Type I PACAP receptor (Homo sapiens, UniProt P41586)", "T2 sequence (P41586 21-468)": "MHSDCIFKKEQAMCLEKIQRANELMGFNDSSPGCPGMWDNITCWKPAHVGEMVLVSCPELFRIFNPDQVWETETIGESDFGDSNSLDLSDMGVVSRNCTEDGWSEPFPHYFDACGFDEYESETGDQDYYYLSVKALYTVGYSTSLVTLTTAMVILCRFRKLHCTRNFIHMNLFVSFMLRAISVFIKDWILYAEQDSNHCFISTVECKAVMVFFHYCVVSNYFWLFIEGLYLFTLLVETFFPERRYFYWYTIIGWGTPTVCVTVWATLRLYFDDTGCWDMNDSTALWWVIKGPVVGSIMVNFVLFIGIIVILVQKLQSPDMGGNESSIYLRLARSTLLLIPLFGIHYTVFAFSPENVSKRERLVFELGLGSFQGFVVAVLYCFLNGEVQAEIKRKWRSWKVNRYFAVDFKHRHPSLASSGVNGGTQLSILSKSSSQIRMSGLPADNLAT", "conditions": "cited from earlier work"}, "[12]": {"tested_on": "CNS cultures, cAMP", "assay": "cAMP in CNS cultures at the peptide concentrations that increase neuronal survival", "type": "cell-based", "conditions": "0.1 nM, any CNS culture system"}, "[13]": {"conditions": "rat, in vivo", "description": "FIG. 15 is a graph showing ^125I -PACAP 38 levels in brain tissue 10 minutes after icv injection, at 1×10^6 cpm ^125I-PACAP38.\nThis calculation was based on the transport of ^125I-labelled peptide given icv as a bolus but slow injection over 5 min. 1×10^6 cpm ^125I-PACAP38 was injected icv in anesthetized rats, the cpm in the brain tissues 10 min after the injection is shown in FIG. 15.\nThe labelled peptide was injected into the right lateral ventricle."}, "[14]": {"molecular_target": "T3, PACAP receptor (PACAP binding sites) in rat brain membrane preparations (rat, UniProt P32215 20-523)", "T3 construct": "whole, on cells; Native receptor in crude brain membranes, not a recombinant protein; also called the receptor", "T3 sequence (looked up)": "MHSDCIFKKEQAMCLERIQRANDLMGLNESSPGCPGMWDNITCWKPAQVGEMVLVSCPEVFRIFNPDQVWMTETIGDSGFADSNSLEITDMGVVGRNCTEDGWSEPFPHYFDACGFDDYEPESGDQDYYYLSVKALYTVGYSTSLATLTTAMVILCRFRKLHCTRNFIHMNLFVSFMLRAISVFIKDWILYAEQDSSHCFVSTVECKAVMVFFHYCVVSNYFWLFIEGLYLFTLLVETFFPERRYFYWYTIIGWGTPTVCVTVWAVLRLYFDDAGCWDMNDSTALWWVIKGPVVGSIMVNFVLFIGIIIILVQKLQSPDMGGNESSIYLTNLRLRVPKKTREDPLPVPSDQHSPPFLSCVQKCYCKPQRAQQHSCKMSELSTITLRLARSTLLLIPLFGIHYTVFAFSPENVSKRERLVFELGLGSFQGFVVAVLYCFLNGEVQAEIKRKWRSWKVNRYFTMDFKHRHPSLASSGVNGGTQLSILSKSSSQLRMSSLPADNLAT", "assay": "Scatchard analysis of displacement of 125I-PACAP27, E18 rat brain membranes; reference PACAP27"}}, "note": "No end group written: not given here.", "data": [{"molecule": "GHRH: structurally related peptide used in binding competition", "values": [{"measurement": "displacement of 125I-PACAP27 binding", "setting": "[1]", "result": "did not displace"}]}, {"molecule": "PACAP[1-38]-NH2 [PACAP38]", "values": [{"measurement": "number of degenerating cells less than in untreated embryos", "setting": "[2]", "result": 37.2, "unit": "%"}, {"measurement": "effect on ischemia-induced neuronal cell death in CA1", "setting": "[3]; iv 16 pmol/hr", "result": "significantly (<0.01) attenuated brain cell death"}, {"measurement": "effect on ischemia-induced neuronal cell death in CA1", "setting": "[3]; iv 160 pmol/hr", "result": "significantly (<0.01) attenuated brain cell death"}, {"measurement": "affinity for the receptor relative to PACAP27 (higher)", "setting": "[1]", "result": "about 10 fold"}, {"measurement": "displacement of 125I-PACAP27 binding", "setting": "[1]", "result": "more effectively than did PACAP27"}, {"measurement": "most effective continuous icv infusion rate", "setting": "[4]; after bolus 450 ng/10 μl H2O over 10 min, infusion over seven days, FIG. 12", "result": 45, "unit": "ng/µL/h"}, {"measurement": "icv dose of maximum cytoprotective effect (bell-shaped dose-response)", "setting": "[4]; icv infusion into right lateral cerebroventricle over one week, FIG. 16", "result": 1, "unit": "pmol/h"}, {"measurement": "effect on ischemia-induced neuronal cell death in CA1", "setting": "[4]; icv infusion over one week, viable neurons 7 days after ischemia", "result": "significantly prevented the neuronal cell death"}, {"measurement": "effect on ischemia-induced cell death in CA1 (histology)", "setting": "[4]; icv osmotic pump 1 pmol/h over one week, started immediately after ischemia, 7 days", "result": "prevented ischemia-induced cell death in CA1"}, {"measurement": "most effective icv dose", "setting": "[4]; icv over 7 days, 10, 1, 0.1 and 0.01 pmol/h tested, FIG. 14", "result": 1, "unit": "pmol/h"}, {"measurement": "increase in number of motoneurons per motor column", "setting": "[5]; 5 nM in the egg daily E6 to E9, counted on E10", "result": 7.2, "unit": "%"}, {"measurement": "increase in number of motoneurons per motor column", "setting": "[5]; 25 nM in the egg daily E6 to E9, counted on E10", "result": 12.5, "unit": "%"}, {"measurement": "effect on ischemia-induced neuronal cell death in CA1", "setting": "[6]; iv 16 pmol/hr over one week after 20 μg/kg iv bolus", "result": "attenuated neuronal cell death significantly"}, {"measurement": "effect on ischemia-induced neuronal cell death in CA1", "setting": "[6]; iv 160 pmol/hr over one week after 20 μg/kg iv bolus", "result": "attenuated neuronal cell death significantly"}, {"measurement": "lower peak of bimodal dose-response curve of cytoprotection", "setting": "[7]", "result": 0.1, "unit": "pM"}, {"measurement": "upper peak of bimodal dose-response curve of cytoprotection", "setting": "[7]", "result": 0.1, "unit": "nM"}]}, {"molecule": "VIP: vasoactive intestinal peptide", "values": [{"measurement": "potency in increasing cellular cAMP, times less potent than PACAP", "setting": "[8]", "result": "approximately 1000 times"}, {"measurement": "displacement of 125I-PACAP27 binding", "setting": "[1]", "result": "did not displace"}, {"measurement": "effect on neuronal death in gp120-treated cultures", "setting": "[9]; 0.1 nM", "result": "prevented neuronal death"}, {"measurement": "effect on neuronal cell death associated with gp120 treatment", "setting": "[9]; murine hippocampal cultures", "result": "potently and completely prevented"}, {"measurement": "potency in increasing cellular cAMP, times less potent than PACAP", "setting": "[10]", "result": "approximately 1000 times"}, {"measurement": "affinity for Type I PACAP receptor, times less than that of PACAP", "setting": "[11]", "result": 1000, "unit": "times"}, {"measurement": "binding to Type I PACAP receptor", "setting": "[11]", "result": "do not bind"}, {"measurement": "cAMP response at the concentration that increases neuronal survival", "setting": "[12]", "result": "no increases in cAMP"}]}, {"molecule": "^125I-PACAP38", "values": [{"measurement": "CPM in right hippocampus relative to left", "setting": "[13]", "result": "four times greater"}, {"measurement": "radioactivity in left hippocampus", "setting": "[13]", "result": 5, "unit": "cpm per mg tissue"}, {"measurement": "radioactivity in right hippocampus", "setting": "[13]", "result": 20, "unit": "cpm per mg tissue"}]}, {"molecule": "glucagon: structurally related peptide used in binding competition", "values": [{"measurement": "displacement of 125I-PACAP27 binding", "setting": "[1]", "result": "did not displace"}]}, {"molecule": "secretin: structurally related peptide used in binding competition", "values": [{"measurement": "displacement of 125I-PACAP27 binding", "setting": "[1]", "result": "did not displace"}]}, {"molecule": "HSDGIFTDSYSRYRKQMAVKKYLAAVLGKRYKQRVKNK-NH2 (Synthetic peptide made by solid phase synthesis; also called PACAP[1-38]-NH2; unlabeled PACAP38)", "note": "[Pituitary adenylate cyclase activating polypeptide, complete form with 38 amino acids (PACAP38)]", "values": [{"measurement": "fold higher affinity than PACAP27", "setting": "[14]", "result": "~10", "unit": "fold"}]}]}
